Where two headings read alike, the source gives them in different places.
What was measured:
JIMT-1 = test: MTS cell viability assay, 48 h; format: cell-based, human; details: Homo sapiens; JIMT-1, 48 h, MTS; read-out: CC50
Description: (§1) The cells were incubated with increasing concentrations of the compounds (0–30 µM) for 48 h followed by assessment of cell viability using the MTS assay. […] This compound carries a primary amino group at the sn-3 position of the glycerolipid and L-rhamno sugar at the sn-2 position via an α-rhamnosidic linkage.
(§2) The cell lines were cultured from frozen stocks originally obtained from ATCC (Manassas, VA, USA). MDA-MB-231, JIMT-1, DU145, MDA-MB-468, Hs578t and MDA-MB-453 were grown in DMEM medium supplemented with 10% FBS. BT-474 cells were grown in DMEM/F12 medium supplemented with 10% FBS. MiaPaCa2 was cultured in DMEM supplemented with 10% FBS and 2.5% horse serum. All the media contained penicillin/streptomycin. U-251 and U-87 in Eagle MEM supplemented by 10% FBS, 1% Non-essential amino acids, 1 mM sodium pyruvate and 2 mM glutamine. BT-549 was cultured in RPMI 1640 medium supplemented with 10% FBS.
(§3) The effects of the GAELs on the viability of the epithelial cancer cell lines were determined as previously described. Briefly, equal numbers of the cells were dispersed into 96-well plates. After 24 h, the cells were incubated with the compounds (0–30 µM) for 48 h. MTS reagent [3-(4,5-dimethylthiazol-2-yl)-5-(3-carboxymethoxyphenyl)-2-(4-sulfophenyl)-2H-tetrazolium, inner salt; Promega, Madison, WI, USA] (20% v/v) was subsequently added and the plates were incubated for 1–4 h in a CO2 incubator followed by measurement of the medium at OD490 with a plate reader (Molecular Devices). Wells with media but no cells were treated in similar fashion and the values utilized as blank.

DU-145 = test: MTS cell viability assay, 48 h; format: cell-based, human; details: Homo sapiens; DU-145, 48 h, MTS; read-out: CC50
Description: as §1, §2
as §3, with “Devices).” for “Devices). Wells with media but no cells were treated in similar fashion and the values utilized as blank.”

MiaPaCa2 = test: MTS cell viability assay, 48 h; format: cell-based, human; details: Homo sapiens, MIA PaCa-2; MiaPaCa2, 48 h, MTS; read-out: CC50
Description: as §1, §2
as §3, with “Devices).” for “Devices). Wells with media but no cells were treated in similar fashion and the values utilized as blank.”

PC-3 = test: MTS cell viability assay, 48 h; format: cell-based, human; details: Homo sapiens; PC-3, 48 h, MTS; read-out: CC50
Description: as §1, §3

[1] = system: human epithelial cancer cell lines: breast (MDA-MB-231, JIMT-1), pancreas (MiaPaCa2) and prostate (DU-145, PC-3); test: MTS cell viability assay, 48 h, across the panel of cell lines; format: cell-based; details: 48 h, 48 h, MTS; for CC50: range or bound over all cell lines, read-out: CC50 values across the cell lines
Description: as §1, §2, §3

[2] = system: BT474 (hormone receptor positive breast cancer cells); test: MTS cell viability assay, 48 h; format: cell-based; details: Homo sapiens, BT-474
Description: (§4) Concentrations of compound 3 between 6–15 µM were sufficient to kill all the triple negative cell lines with the exception of MDA-MB-453 where viability was inhibited by 60% at the highest concentration tested. 30 µM of 3 was required for complete loss of viability of the hormone sensitive breast cancer BT474 cell line.
as §2
(§5) The effects of the GAELs on the viability of the epithelial cancer cell lines were determined as previously described. Briefly, equal numbers of the cells were dispersed into 96-well plates. After 24 h, the cells were incubated with the compounds (0–30 µM) for 48 h. […] (20% v/v) was subsequently added and the plates were incubated for 1–4 h in a CO2 incubator followed by measurement of the medium at OD490 with a plate reader (Molecular Devices). […]

MDA-MB-453 = test: MTS cell viability assay, 48 h; format: cell-based, human
Description: as §4, §2, §5

Hemolytic assay = format: cell-based; details: sheep, ovine erythrocytes (washed suspension), pH 7.4, relative to 1% ammonium hydroxide = 100%, read-out: Highest hemolysis observed
Description: To further evaluate the membrane lytic properties of compound 3, we investigated its capacity to lyse ovine erythrocytes. The highest hemolysis observed with compound 3 was about 6.6% at 100 µM compared to the 1% ammonium hydroxide positive control (Figure 6).
The hemolytic activity of the GAEL analogs was evaluated using ovine erythrocyte. Sheep whole blood was collected from a slaughter house into a vessel containing disodium EDTA ([…]) in a buffered saline (10 mM Tris, 150 mM NaCl, pH 7.4). The erythrocytes were prepared and washed with buffered saline as previously reported. For the assay, the erythrocyte suspension, varying amounts of the GAEL drugs or vehicle were pipetted into 1.5 mL microcentrifuge tubes to give a final volume of 1500 µL and cell density of 2.5 × 10^8 cells/mL. The suspensions were incubated with gentle shaking in Eppendorf thermomixer for 30 min. […] 200 µL of the supernatant was dissolved in 1800 µL of 0.5% NH4OH and the optical density (OD) was recorded using 1 mL cuvette at 540 nm in a spectrophotometer. […] The % hemolysis was calculated using the optical density (OD) values as shown below in Equation (1):% hemolysis = (X − 0%)/(100% − 0%)(1) where X is the OD values of the drug(s) at varying concentration.
Figure 6 Hemolytic properties of GAEL 3 using freshly isolated ovine erythrocytes. […] The values were determined as % of control.

SMILES: CCCCCCCCCCCCCCCCOCC(CN)OC1OC(C)C(O)C(O)C1O [Compound 3, 3-Amino-1-O-hexadecyloxy-2R-(O–α-L-rhamnopyranosyl)-sn-glycerol]
- CC50 (JIMT-1): 5.5 µM
- CC50 (DU-145): 8.2 µM
- CC50 (MiaPaCa2): 8.5 µM
- CC50 (PC-3): 11 µM
- CC50 ([1]; Homo sapiens): 4.8 to 14 µM
- Concentration range giving greater than 90% loss of cell viability ([1]; all the cell lines): 7.5 to 15.0 µM
- CC50 [1]: 4.8 to 11 µM
- CC50 [2]: 14 µM
- CC50 (MDA-MB-453; Homo sapiens, MDA-MB-453): 13.8 µM
- Viability inhibited (MDA-MB-453; MDA-MB-453, at the highest concentration tested): 60%
- hemolysis at 30 min, 100 µM (Hemolytic assay): ~6.6%

— paper PMC7037447, “Syntheses of L-Rhamnose-Linked Amino Glycerolipids and Their Cytotoxic Activities against Human Cancer Cells” (Molecules, 2020)
